Assay results reported in US20240174670A1, “4-AMINO-6-OXO-PYRIDAZINE DERIVATIVES MODULATING NLRP3” (JANSSEN PHARMACEUTICA NV, priority 2021, published 2024).

How the values were obtained:
[1] = test system: TNF; assay: PBMC assay, TNF release after LPS stimulation; assay type: cell-based; settings: human PBMCs, 30 min preincubation, 100 ng/ml LPS for 6 hrs, supernatant, MSD technology
Method: (§1) Peripheral venous blood was collected from healthy individuals and human peripheral blood mononuclear cells (PBMCs) were isolated from blood by Ficoll-Histopaque (Sigma-Aldrich, A0561) density gradient centrifugation. After isolation, PBMCs were stored in liquid nitrogen for later use. Upon thawing, PBMC cell viability was determined in growth medium (RPMI media supplemented with 10% fetal bovine serum, 1% Pen-Strep and 1% L-glutamine). Compounds were spotted in a 1:3 serial dilution in DMSO and diluted to the final concentration in 30 μl medium in 96 well plates (Falcon, 353072). PBMCs were added at a density of 7.5×10^4 cells per well and incubated for 30 min in a 5% CO2 incubator at 37 ° C. LPS stimulation was performed by addition of 100 ng/ml LPS (final concentration, Invivogen, tlrl-smlps) for 6 hrs followed by collection of cellular supernatant and the analysis of IL-1β[…] and TNF cytokines levels (uμ) via MSD technology according to manufacturers' guidelines (MSD, K151A0H).
(§2) IC50 and AC50 values (for IL-1β) and EC50 and AC50 values (TNF) were obtained on compounds of the invention/examples, and the AC50 values are depicted in the following table: […]

[2] = test system: IL-1β; assay: PBMC assay, IL-1β release after LPS stimulation; assay type: cell-based; settings: human PBMCs, 30 min preincubation, 100 ng/ml LPS for 6 hrs, supernatant, MSD technology, read-out: IL1β AC50
Method: The activity of a compound according to the present invention can be assessed by in vitro methods.
as §1, §2

## CC(C)c1nn(CC(=O)Nc2ccc3nncn3c2)c(=O)cc1N1CCC[C@H]1CO (single isomer, unassigned) [Compound 11]
[1]
  AC50: > 10 µM
[2]
  AC50: > 15 µM

## CC(C)c1nn(CC(=O)Nc2ccc3nncn3c2)c(=O)cc1Nc1ccccc1 [Compound 1, 2-(4-anilino-3-isopropyl-6-oxo-pyridazin-1-yl)-N-([1,2,4]triazolo[4,3-a]pyridin-6-yl)acetamide]
[1]
  AC50: > 10 µM
[2]
  AC50: > 15 µM

## CC(C)c1nn(CC(=O)Nc2ccc3nncn3c2)c(=O)cc1Nc1cnn(CC23CC(CO2)C3)c1 [Compound 2]
[1]
  AC50: > 10 µM
[2]
  AC50: > 15 µM

## CC(C)c1nn(CC(=O)Nc2ccc3nncn3c2)c(=O)cc1Nc1cnn(CC23CC(CO2)C3)c1C(F)(F)F [Compound 3]
[1]
  AC50: > 10 µM
[2]
  AC50: > 15 µM

## CC(C)c1nn(CC(=O)Nc2ccc3nncn3c2)c(=O)cc1NCC(F)(F)F [Compound 4]
[1]
  AC50: > 10 µM
[2]
  AC50: > 15 µM

## CC(C)c1nn(CC(=O)Nc2ccc3nncn3c2)c(=O)cc1N1CCCC1 [Compound 5, 2-(3-isopropyl-6-oxo-4-pyrrolidin-1-yl-pyridazin-1-yl)-N-([1,2,4]triazolo[4,3-a]pyridin-6-yl)acetamide]
[1]
  AC50: > 10 µM
[2]
  AC50: 0.33 µM

## CC(C)c1nn(CC(=O)Nc2ccc3nncn3c2)c(=O)cc1N1CCOCC1 [Compound 6]
[1]
  AC50: > 10 µM
[2]
  AC50: > 15 µM

## CC(C)c1nn(CC(=O)Nc2ccc3nncn3c2)c(=O)cc1NC1CCCC1 [Compound 7]
[1]
  AC50: > 10 µM
[2]
  AC50: 4.36 µM

## COC[C@@H]1CCCN1c1cc(=O)n(CC(=O)Nc2ccc3nncn3c2)nc1C(C)C [Compound 8]
[1]
  AC50: > 10 µM
[2]
  AC50: 5.81 µM

## CC(C)c1nn(CC(=O)Nc2ccc3nncn3c2)c(=O)cc1N1CC[C@H](F)C1 [Compound 9]
[1]
  AC50: > 10 µM
[2]
  AC50: 2.49 µM

## CC(C)c1nn(CC(=O)Nc2ccc3nncn3c2)c(=O)cc1N1CC[C@@H](F)C1 [Compound 10]
[1]
  AC50: > 10 µM
[2]
  AC50: 0.53 µM

## CC(C)c1nn(CC(=O)Nc2ccc3nncn3c2)c(=O)cc1N1CCC(F)(F)CC1 [Compound 12]
[1]
  AC50: > 10 µM
[2]
  AC50: > 15 µM

## CC(C)c1nn(CC(=O)Nc2ccc3nncn3c2)c(=O)cc1N1CCC(F)(F)C1 [Compound 13]
[1]
  AC50: > 10 µM
[2]
  AC50: 0.66 µM

## CC(C)c1nn(CC(=O)Nc2ccc3nncn3c2)c(=O)cc1N1CC2CC2C1 (stereo not drawn) [Compound 14]
[1]
  AC50: > 10 µM
[2]
  AC50: 0.09 µM

## COC[C@H]1CCCN1c1cc(=O)n(CC(=O)Nc2ccc3nncn3c2)nc1C(C)C [Compound 15]
[1]
  AC50: > 10 µM
[2]
  AC50: 16.6 µM

## CO[C@H]1CCN(c2cc(=O)n(CC(=O)Nc3ccc4nncn4c3)nc2C(C)C)C1 [Compound 16]
[1]
  AC50: > 10 µM
[2]
  AC50: 11.4 µM

## CO[C@@H]1CCN(c2cc(=O)n(CC(=O)Nc3ccc4nncn4c3)nc2C(C)C)C1 [Compound 17]
[1]
  AC50: > 10 µM
[2]
  AC50: 2.9 µM

## CC(C)c1nn(CC(=O)Nc2ccc3nncn3c2)c(=O)cc1N1CCC[C@@H]1C [Compound 18]
[1]
  AC50: > 10 µM
[2]
  AC50: > 15 µM

## CCC1CCCN1c1cc(=O)n(CC(=O)Nc2ccc3nncn3c2)nc1C(C)C (stereo not drawn) [Compound 19]
[1]
  AC50: > 10 µM
[2]
  AC50: 2.61 µM

## CC(C)c1nn(CC(=O)Nc2ccc3nncn3c2)c(=O)cc1N1CCCC1C(C)C (stereo not drawn) [Compound 20]
[1]
  AC50: > 10 µM
[2]
  AC50: 10.8 µM

## CC(C)c1nn(CC(=O)Nc2ccc3nncn3c2)c(=O)cc1N1C2CCC1CC2 [Compound 21]
[1]
  AC50: > 10 µM
[2]
  AC50: 1.02 µM

## CC1CN(c2cc(=O)n(CC(=O)Nc3ccc4nncn4c3)nc2C(C)C)C1 [Compound 23]
[1]
  AC50: > 10 µM
[2]
  AC50: 0.71 µM

## COC1CN(c2cc(=O)n(CC(=O)Nc3ccc4nncn4c3)nc2C(C)C)C1 [Compound 24]
[1]
  AC50: > 10 µM
[2]
  AC50: 9.87 µM

## CC(C)c1nn(CC(=O)Nc2ccc3nncn3c2)c(=O)cc1N1CCC12CCOCC2 [Compound 25]
[1]
  AC50: > 10 µM
[2]
  AC50: > 15 µM

## CC(C)c1nn(CC(=O)Nc2ccc3nncn3c2)c(=O)cc1N1CC(C)(O)C1 [Compound 26]
[1]
  AC50: > 10 µM
[2]
  AC50: > 15 µM

## CC(C)c1nn(CC(=O)Nc2ccc3nncn3c2)c(=O)cc1N1CC[C@@H](N(C)C)C1 [Compound 27]
[1]
  AC50: > 10 µM
[2]
  AC50: > 15 µM

## CC(C)c1nn(CC(=O)Nc2ccc3nncn3c2)c(=O)cc1N1CC[C@H](N(C)C)C1 [Compound 28]
[1]
  AC50: > 10 µM
[2]
  AC50: > 15 µM

## CC(C)c1nn(CC(=O)Nc2ccc3nncn3c2)c(=O)cc1NCC1CC1 [Compound 29, 2-[4-(cyclopropylmethylamino)-3-isopropyl-6-oxo-pyridazin-1-yl]-N-([1,2,4]triazolo[4,3-a]pyridin-6-yl)acetamide]
[1]
  AC50: > 10 µM
[2]
  AC50: 1.53 µM

## CC(C)c1nn(CC(=O)Nc2ccc3nncn3c2)c(=O)cc1N(C)C [Compound 30, 2-[4-(dimethylamino)-3-isopropyl-6-oxo-pyridazin-1-yl]-N-([1,2,4]triazolo[4,3-a]pyridin-6-yl)acetamide]
[1]
  AC50: > 10 µM
[2]
  AC50: > 15 µM

## CC(C)c1nn(CC(=O)Nc2ccc3nncn3c2)c(=O)cc1NC1CC(C)(C)C1 [Compound 31, N-([1,2,4]triazolo[4,3-a]pyridin-6-yl)-2-(4-((3,3-dimethylcyclobutyl)amino)-3-isopropyl-6-oxopyridazin-1(6H)-yl)acetamide]
[1]
  AC50: > 20 µM
[2]
  AC50: > 20 µM

## CC(C)c1nn(CC(=O)Nc2ccc3nncn3c2)c(=O)cc1N1CC(C)(F)C1 [Compound 32]
[1]
  AC50: > 20 µM
[2]
  AC50: 1.37 µM

## CC(C)c1nn(CC(=O)Nc2ccc3nncn3c2)c(=O)cc1N1CC[C@@H]2C[C@@H]2C1 [Compound 33]
[1]
  AC50: > 20 µM
[2]
  AC50: 0.5 µM

## CC(C)c1nn(CC(=O)Nc2ccc3nncn3c2)c(=O)cc1N1Cc2cc(F)cnc2C1 [Compound 34]
[1]
  AC50: > 20 µM
[2]
  AC50: > 20 µM

## CC(C)c1nn(CC(=O)Nc2ccc3nncn3c2)c(=O)cc1N1CC(CC(F)F)C1 [Compound 35]
[1]
  AC50: > 20 µM
[2]
  AC50: 4.36 µM

## CC(C)c1nn(CC(=O)Nc2ccc3nncn3c2)c(=O)cc1N1CCC(C)(O)CC1 [Compound 36]
[1]
  AC50: > 20 µM
[2]
  AC50: > 20 µM

## CC(C)c1nn(CC(=O)Nc2ccc3nncn3c2)c(=O)cc1NCC(F)c1ccccc1 (stereo not drawn) [Compound 37]
[1]
  AC50: > 20 µM
[2]
  AC50: > 20 µM

## CC(C)c1nn(CC(=O)Nc2ccc3nncn3c2)c(=O)cc1Nc1cccc(C2CC2)n1 [Compound 38, N-([1,2,4]triazolo[4,3-a]pyridin-6-yl)-2-(4-((6-cyclopropylpyridin-2-yl)amino)-3-isopropyl-6-oxopyridazin-1(6H)-yl)acetamide]
[1]
  AC50: > 4 µM
[2]
  AC50: > 4 µM

## CC(C)c1nn(CC(=O)Nc2ccc3nncn3c2)c(=O)cc1Nc1cnc(C2CC2)nc1 [Compound 39]
[1]
  AC50: > 6.67 µM
[2]
  AC50: > 6.67 µM

## CC(C)c1nn(CC(=O)Nc2ccc3nncn3c2)c(=O)cc1NC(C)C1CC1(F)F (stereo not drawn) [Compound 40, N-([1,2,4]triazolo[4,3-a]pyridin-6-yl)-2-(4-((1-(2,2-difluorocyclopropyl)ethyl)amino)-3-isopropyl-6-oxopyridazin-1(6H)-yl)acetamide]
[1]
  AC50: > 20 µM
[2]
  AC50: > 20 µM

## CC(C)c1nn(CC(=O)Nc2ccc3nncn3c2)c(=O)cc1Nc1ccc2oncc2c1 [Compound 41, N-([1,2,4]triazolo[4,3-a]pyridin-6-yl)-2-(4-(benzo[d]isoxazol-5-ylamino)-3-isopropyl-6-oxopyridazin-1(6H)-yl)acetamide]
[1]
  AC50: > 20 µM
[2]
  AC50: > 20 µM

## CC(C)c1nn(CC(=O)Nc2ccc3nncn3c2)c(=O)cc1Nc1cccc2ocnc12 [Compound 42]
[1]
  AC50: > 20 µM
[2]
  AC50: > 20 µM

## CC(C)c1nn(CC(=O)Nc2ccc3nncn3c2)c(=O)cc1Nc1cc([C@H]2C[C@H]2C)on1 [Compound 43]
[1]
  AC50: > 20 µM
[2]
  AC50: > 20 µM

## CC(C)c1nn(CC(=O)Nc2ccc3nncn3c2)c(=O)cc1Nc1cc(CC2CC2)on1 [Compound 44]
[1]
  AC50: > 20 µM
[2]
  AC50: > 20 µM

## CC(C)c1nn(CC(=O)Nc2ccc3nncn3c2)c(=O)cc1N1CCCCC1 [Compound 45, N-([1,2,4]triazolo[4,3-a]pyridin-6-yl)-2-(3-isopropyl-6-oxo-4-(piperidin-1-yl)pyridazin-1(6H)-yl)acetamide]
[1]
  AC50: > 20 µM
[2]
  AC50: 1.23 µM

## CC(C)CNc1cc(=O)n(CC(=O)Nc2ccc3nncn3c2)nc1C(C)C [Compound 46]
[1]
  AC50: > 20 µM
[2]
  AC50: 1.36 µM

## CC(C)CN(C)c1cc(=O)n(CC(=O)Nc2ccc3nncn3c2)nc1C(C)C [Compound 47]
[1]
  AC50: > 20 µM
[2]
  AC50: 13.8 µM

## CC(C)c1nn(CC(=O)Nc2ccc3nncn3c2)c(=O)cc1N1CCN(C)CC1 [Compound 48]
[1]
  AC50: > 20 µM
[2]
  AC50: > 20 µM

## CC(C)c1nn(CC(=O)Nc2ccc3nncn3c2)c(=O)cc1N1CC2(CCC2)C1 [Compound 49]
[1]
  AC50: 8.29 µM
[2]
  AC50: 0.76 µM

## CC(C)c1nn(CC(=O)Nc2ccc3nncn3c2)c(=O)cc1N1CC2(COC2)C1 [Compound 50]
[1]
  AC50: > 20 µM
[2]
  AC50: > 20 µM

## CC(C)c1nn(CC(=O)Nc2ccc3nncn3c2)c(=O)cc1N1CC[C@H](C)C1 [Compound 51]
[1]
  AC50: > 20 µM
[2]
  AC50: 0.42 µM

## CC(C)c1nn(CC(=O)Nc2ccc3nncn3c2)c(=O)cc1N1CCC2(CCCO2)C1 (stereo not drawn) [Compound 52]
[1]
  AC50: > 20 µM
[2]
  AC50: > 20 µM
